Publication PMC10989772 (mLife, 2022)

Experiments:
[1] = molecular target: Larg1 (lpg0081, 16–428aa) (Legionella pneumophila, UniProt Q5ZZD0)
[2] = molecular target: Larg1 (Lpg0081) (Legionella pneumophila, UniProt Q5ZZD0)
Chain of Larg1 (Lpg0081) (Q5ZZD0 1-441 limits assumed): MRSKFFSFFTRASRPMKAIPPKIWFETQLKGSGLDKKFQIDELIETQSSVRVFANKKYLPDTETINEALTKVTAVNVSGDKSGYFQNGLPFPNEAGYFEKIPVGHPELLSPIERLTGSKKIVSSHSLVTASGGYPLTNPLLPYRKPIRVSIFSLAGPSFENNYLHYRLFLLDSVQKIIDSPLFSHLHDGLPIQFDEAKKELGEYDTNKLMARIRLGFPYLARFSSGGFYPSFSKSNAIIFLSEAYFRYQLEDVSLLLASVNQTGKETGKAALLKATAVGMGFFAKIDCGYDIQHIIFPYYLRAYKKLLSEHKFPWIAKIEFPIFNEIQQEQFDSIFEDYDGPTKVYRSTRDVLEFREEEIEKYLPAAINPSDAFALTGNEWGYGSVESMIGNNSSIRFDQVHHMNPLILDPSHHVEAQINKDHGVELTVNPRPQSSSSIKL

Chain of Larg1 (lpg0081, 16–428aa) (Q5ZZD0 16-428 limits assumed): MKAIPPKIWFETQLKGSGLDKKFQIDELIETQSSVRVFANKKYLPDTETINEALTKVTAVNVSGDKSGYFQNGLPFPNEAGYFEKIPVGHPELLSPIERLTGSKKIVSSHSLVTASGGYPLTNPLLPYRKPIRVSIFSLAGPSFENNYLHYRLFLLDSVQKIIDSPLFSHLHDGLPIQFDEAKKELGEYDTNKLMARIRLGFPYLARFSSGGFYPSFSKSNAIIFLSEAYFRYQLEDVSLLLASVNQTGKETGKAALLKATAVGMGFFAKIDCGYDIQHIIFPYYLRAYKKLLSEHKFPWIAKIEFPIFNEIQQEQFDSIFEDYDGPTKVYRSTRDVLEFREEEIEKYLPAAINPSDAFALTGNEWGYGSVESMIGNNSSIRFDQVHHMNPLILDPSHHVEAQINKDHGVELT

Nc1ncnc2c1ncn2[C@@H]1O[C@H](COP(=O)(O)OP(=O)(O)OC[C@H]2OC(O)[C@H](O)[C@@H]2O)[C@@H](O)[C@H]1O (some centres unmarked) [ADPR]
X-ray crystal structure, 2.32 Å [1]: to determine the structure of the Larg1‐ADPR complex (PDB:7W3S) | Kd [2]: 3.87 µM
